From patent publication US20190010158A1, “ANTITUMOR EFFECT POTENTIATOR COMPRISING PYRROLOPYRIMIDINE COMPOUND” (TAIHO PHARMACEUTICAL CO., LTD, priority 2015, published 2019) come the findings set out here.

Some results are limits rather than exact numbers.

The IC50 is the concentration that gives 50% inhibition.

Experiment [1] deals with T1, NAE (heterodimer of APPBP1 and UBA3) (Homo sapiens, UniProt Q8TBC4).
T1 construct: amino acids 1 to 463 of human UBA3 protein; made in house; host or cells: Sf9 insect cells (baculovirus co-infection) for NAE; E. coli BL21 (DE3) for GST-UBC12
T1 sequence (Q8TBC4 1-463): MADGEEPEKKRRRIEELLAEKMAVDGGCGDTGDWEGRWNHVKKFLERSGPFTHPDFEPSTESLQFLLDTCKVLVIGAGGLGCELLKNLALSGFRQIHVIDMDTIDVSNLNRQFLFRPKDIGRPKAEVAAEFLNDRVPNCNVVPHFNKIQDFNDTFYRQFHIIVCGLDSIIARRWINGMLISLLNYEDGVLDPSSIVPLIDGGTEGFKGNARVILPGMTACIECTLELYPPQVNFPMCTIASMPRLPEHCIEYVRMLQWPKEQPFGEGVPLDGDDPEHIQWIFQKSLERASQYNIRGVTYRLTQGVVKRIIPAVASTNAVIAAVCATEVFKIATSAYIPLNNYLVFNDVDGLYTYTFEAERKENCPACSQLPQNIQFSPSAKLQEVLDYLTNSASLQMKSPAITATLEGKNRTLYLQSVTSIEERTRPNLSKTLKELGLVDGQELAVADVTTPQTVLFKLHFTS
T1 sequence (Q13564 1-534 partner): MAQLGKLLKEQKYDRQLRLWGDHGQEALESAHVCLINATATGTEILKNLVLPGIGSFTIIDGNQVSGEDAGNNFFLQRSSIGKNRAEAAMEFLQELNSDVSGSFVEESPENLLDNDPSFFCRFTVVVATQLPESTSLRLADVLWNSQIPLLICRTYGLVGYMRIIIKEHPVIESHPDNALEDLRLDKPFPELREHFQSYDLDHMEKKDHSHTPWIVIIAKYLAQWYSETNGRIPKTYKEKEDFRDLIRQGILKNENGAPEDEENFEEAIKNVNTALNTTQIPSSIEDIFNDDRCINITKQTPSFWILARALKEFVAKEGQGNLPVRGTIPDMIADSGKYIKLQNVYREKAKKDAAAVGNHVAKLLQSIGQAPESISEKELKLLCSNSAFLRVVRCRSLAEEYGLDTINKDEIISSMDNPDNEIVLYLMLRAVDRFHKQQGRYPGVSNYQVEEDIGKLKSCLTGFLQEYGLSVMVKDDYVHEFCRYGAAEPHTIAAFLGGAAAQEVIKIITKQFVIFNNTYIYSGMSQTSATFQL
The experiment in a line: Nedd8 conjugation inhibitory activity (AlphaScreen). The experiment is classed as biochemical. The note with it: purified NAE, GST-UBC12, ATP, Biotin-Nedd8, reaction 90 minutes.

Experiment [2] deals with human acute T lymphoblastic leukemia CCRF-CEM cell lines. As to the kind of experiment: Cell growth inhibition 1 (CellTiter-Glo). Conditions: culture with test compound 72 hours. The experiment is classed as cell-based. (ATP-based viability assays read luminescence as a measure of living cells.)
Experiment [3] has as its system tumor cell lines shown in Table 44. The experiment in a line: Example 12: combined use with platinum-based antitumor agent, cell growth inhibition test (IC50 ratio, CI). The note with it: for IC50 Ratio: IC50 of Reference Example Compound 55 : IC50 of other compound = 1:value; for CI: at ED50; for Comprehensive Evaluation: combined use with Reference Example Compound 55.

Experiment [4] deals with tumor cell lines shown in Table 48. The experiment in a line: Example 14: combined use with alkylating agent, cell growth inhibition test (IC50 ratio, CI). The experiment is classed as cell-based. Conditions: for IC50 Ratio: IC50 of Reference Example Compound 55 : IC50 of other compound = 1:value; for CI: at ED50; for Comprehensive Evaluation: combined use with Reference Example Compound 55.

In experiment [5] the test system is tumor cell lines shown in Table 32. The experiment in a line: Example 6: combined use with immunomodulator, cell growth inhibition test (IC50 ratio, CI). The experiment is classed as cell-based. The note with it: MM.1S; for IC50 Ratio: IC50 of Reference Example Compound 55 : IC50 of other compound = 1:value; for CI: at ED50; for Comprehensive Evaluation: combined use with Reference Example Compound 55.

[6] abbreviates: MV4-11, Reference Example Compound 55:other compound 1:3000.
The mark [7] stands for this setting: MV4-11, Reference Example Compound 55:other compound 1:9000.

As to `Nc1ncnc2c1c(C#Cc1c(F)cccc1F)cn2[C@@H]1O[C@H](COS(N)(=O)=O)[C@@H](O)[C@H]1O` [Reference Example 132, [(2R,3S,4R,5R)-5-[4-Amino-5-[2-(2,6-difluorophenyl)ethynyl]pyrrolo[2,3-d]pyrimidin-7-yl]-3,4-dihydroxy-tetrahydrofuran-2-yl]methyl sulfamate], the IC50 in experiment [1] is at most 0.003 µM; in experiment [2], 1.8 nM.

For the molecule `Nc1ncnc2c1c(C#Cc1c(F)cc(N3CCC[C@@H](O)C3)cc1F)cn2[C@@H]1O[C@H](CNS(N)(=O)=O)[C@@H](O)[C@H]1O` [Reference Example 40, 4-Amino-5-[2-[2,6-difluoro-4-[(3R)-3-hydroxy-1-piperidyl]phenyl]ethynyl]-7-[(2R,3R,4S,5R)-3,4-dihydroxy-5-[(sulfamoylamino)methyl]tetrahydrofuran-2-yl]pyrrolo[2,3-d]pyrimidine], the IC50 in experiment [1] is at most 0.003 µM; in experiment [2], 19 nM.

For the molecule `O=C1[O][Pt]2([NH][C@@H]3CCCC[C@H]3[NH]2)[O]C1=O` [Oxaliplatin, oxaliplatin], in experiment [3] (HL-60), the “IC50 Ratio” value stood at 132 and the “Comprehensive Evaluation” value is “Synergism (0.3-0.7)”. For the same molecule, the CI in experiment [3] (HL-60, Reference Example Compound 55:other compound 1:100) is reported as 0.65. Moreover, the CI in experiment [3] (HL-60, Reference Example Compound 55:other compound 1:300) is on record as 0.70.

As for `N.N.[Cl][Pt][Cl]` [Cisplatin, cisplatin], in experiment [3] (HCT116), the “IC50 Ratio” value is 343 and the “Comprehensive Evaluation” value is listed as “Moderate”. For the same molecule, the CI in experiment [3] (HCT116, Reference Example Compound 55:other compound 1:333) was 0.44. Also, the CI in experiment [3] (HCT116, Reference Example Compound 55:other compound 1:1000) is 0.72.

As for `Nc1ncnc2c1c(C#Cc1c(F)cc(N3CCCC3=O)cc1F)cn2[C@@H]1O[C@H](CNS(N)(=O)=O)[C@@H](O)[C@H]1O` [Reference Example 33, 4-Amino-5-[2-[2,6-difluoro-4-(2-oxopyrrolidin-1-yl)phenyl]ethynyl]-7-[(2R,3R,4S,5R)-3,4-dihydroxy-5-[(sulfamoylamino)methyl]tetrahydrofuran-2-yl]pyrrolo[2,3-d]pyrimidine], the IC50 in experiment [1] is at most 0.003 µM; in experiment [2], 37 nM.

Regarding `N.N.O=C([O-])C1(C(=O)[O-])CCC1.[Pt+2]` [Carboplatin, carboplatin], in experiment [3] (A549), the “IC50 Ratio” value was 38. Further, the CI in experiment [3] (A549, Reference Example Compound 55:other compound 1:17) came out at 0.41; in experiment [3] (A549, Reference Example Compound 55:other compound 1:50) it was 0.87. Moreover, the “Comprehensive Evaluation” value in experiment [3] (A549) is “Slight”.

`CN(C)/N=N/c1[nH]cnc1C(N)=O` [Dacarbazine, dacarbazine]: in experiment [4] (MV4-11), the “IC50 Ratio” value was determined as 6582 and the “Comprehensive Evaluation” value was “Additive (0.9-1.10)”. For the same molecule, the CI in experiment [4] (setting [6]) is listed as 0.92. Also, the CI in experiment [4] (setting [7]) is given as 0.95.

`Nc1ncnc2c1c(C#Cc1c(F)cc(N3CCC(C(=O)O)C3)cc1F)cn2[C@@H]1O[C@H](CNS(N)(=O)=O)[C@@H](O)[C@H]1O` (stereo partly drawn) [Reference Example 41, 1-[4-[2-[4-amino-7-[(2R,3R,4S,5R)-3,4-dihydroxy-5-[(sulfamoylamino)methyl]tetrahydrofuran-2-yl]pyrrolo[2,3-d]pyrimidin-5-yl]ethynyl]-3,5-difluoro-phenyl]pyrrolidine-3-carboxylic Acid] registered an IC50 in experiment [1] of at most 0.003 µM.

On to `Nc1ncnc2c1c(C#Cc1c(F)cc(N3CCS(=O)(=O)CC3)cc1F)cn2[C@@H]1O[C@H](CNS(N)(=O)=O)[C@@H](O)[C@H]1O` [Reference Example 74, 4-[4-[2-[4-amino-7-[(2R,3R,4S,5R)-3,4-dihydroxy-5-[(sulfamoylamino)methyl]tetrahydrofuran-2-yl]pyrrolo[2,3-d]pyrimidin-5-yl]ethynyl]-3,5-difluoro-phenyl]-1,1-dioxo-1,4-thiazinane], for which the IC50 is at most 0.003 µM in experiment [1] and 160 nM in experiment [2].

The molecule `Nc1ncnc2c1c(C#Cc1ccccc1)cn2[C@@H]1O[C@H](COS(N)(=O)=O)[C@@H](O)[C@H]1O` [Reference Example 131, [(2R,3S,4R,5R)-5-[4-amino-5-(2-phenylethynyl)pyrrolo[2,3-d]pyrimidin-7-yl]-3,4-dihydroxy-tetrahydrofuran-2-yl]methyl sulfamate] had an IC50 in experiment [1] of at most 0.003 µM.

In the case of `Nc1cccc2c1CN(C1CCC(=O)NC1=O)C2=O` (stereo not drawn) [Lenalidomide, lenalidomide], in experiment [5], the “IC50 Ratio” value is on record as 14 and the “Comprehensive Evaluation” value is “Moderate”. Moreover, in experiment [5] (Reference Example Compound 55:other compound 1:10), the CI is 0.75. In addition, in experiment [5] (Reference Example Compound 55:other compound 1:30), the CI came out at 0.69.

Take `Nc1cccc2c1C(=O)N(C1CCC(=O)NC1=O)C2=O` (stereo not drawn) [Poma1idomide, pomalidomide]: the “IC50 Ratio” value in experiment [5] was 3. Besides, the CI came to 0.81 in experiment [5] (Reference Example Compound 55:other compound 1:1) and 0.66 in experiment [5] (Reference Example Compound 55:other compound 1:3). In addition, the “Comprehensive Evaluation” value in experiment [5] is on record as “Moderate”.

Regarding `COc1cc2c(cc1O)CCN[C@]21CS[C@@H]2c3c(OC(C)=O)c(C)c4c(c3[C@H](COC1=O)N1[C@@H]2[C@H]2c3c(cc(C)c(OC)c3O)C[C@@H]([C@@H]1O)N2C)OCO4` [Trabectedin, trabectedin], in experiment [4] (HOS), the “IC50 Ratio” value was determined as 0.2 and the “Comprehensive Evaluation” value is reported as “Additive (0.9-1.10)”. For the same molecule, in experiment [4] (HOS, Reference Example Compound 55:other compound 1:0.1), the CI is reported as 0.83. In addition, the CI in experiment [4] (HOS, Reference Example Compound 55:other compound 1:0.3) is 1.01.

In the case of `CCOc1cccc(F)c1C#Cc1cn([C@@H]2O[C@H](CNS(N)(=O)=O)[C@@H](O)[C@H]2O)c2ncnc(N)c12` [Reference Example 55, 4-Amino-7-[(2R,3R,4S,5R)-3,4-dihydroxy-5-[(sulfamoylamino)methyl]tetrahydrofuran-2-yl]-5-[2-(2-ethoxy-6-fluoro-phenyl)ethynyl]pyrrolo[2,3-d]pyrimidine], the IC50 in experiment [1] is at most 0.003 µM.

Regarding `CS(=O)(=O)c1ccccc1C#Cc1cn([C@@H]2O[C@H](CNS(N)(=O)=O)[C@@H](O)[C@H]2O)c2ncnc(N)c12` [Reference Example 22, 4-Amino-7-[(2R,3R,4S,5R)-3,4-dihydroxy-5-[(sulfamoylamino)methyl]tetrahydrofuran-2-yl]-5-[2-(2-methylsulfonylphenyl)ethynyl]pyrrolo[2,3-d]pyrimidine], the IC50 in experiment [1] was at most 0.003 µM.

Turning to `Nc1ncnc2c1c(C#Cc1c(F)cc(N3CC(O)C3)cc1F)cn2[C@@H]1O[C@H](CNS(N)(=O)=O)[C@@H](O)[C@H]1O` [Reference Example 39, 4-Amino-5-[2-[2,6-difluoro-4-(3-hydroxyazetidin-1-yl)phenyl]ethynyl]-7-[(2R,3R,4S,5R)-3,4-dihydroxy-5-[(sulfamoylamino)methyl]tetrahydrofuran-2-yl]pyrrolo[2,3-d]pyrimidine], the IC50 is at most 0.003 µM in experiment [1] and 7.8 nM in experiment [2].

With `CCOc1cccc(F)c1C#Cc1cn([C@@H]2C=C(CNS(N)(=O)=O)[C@@H](O)[C@H]2O)c2ncnc(N)c12` [Reference Example 129, 4-Amino-7-[(1R,4R,5S)-4,5-dihydroxy-3-[(sulfamoylamino)methyl]cyclopent-2-en-1-yl]-5-[2-(2-ethoxy-6-fluoro-phenyl)ethynyl]pyrrolo[2,3-d]pyrimidine], the IC50 in experiment [1] is at most 0.003 µM; in experiment [2], 2.1 nM.

For `O=P1(NCCCl)OCCCN1CCCl` (stereo not drawn) [Ifosfamide, ifosfamide], in experiment [4] (MV4-11), the “IC50 Ratio” value amounted to 6315 and the “Comprehensive Evaluation” value is on record as “Synergism (0.3-0.7)”. Moreover, the CI in experiment [4] (setting [6]) is listed as 0.57. Besides, the CI in experiment [4] (setting [7]) was found to be 0.60.
